Data from a melting point compilation (Tetko et al.; mined from patent text by program, amines drawn as free bases though some values may be those of a salt).

Structure (SMILES) | melting point [°C]
CCc1nc2c(NC(=O)C(C)(C)C)nc3ccccc3c2n1CCCCNS(C)(=O)=O | 220 to 221
Cn1nnnc1Cn1nnnc1Cl | 138 to 140
Cc1nc2ccnn2c2c1CCN2C(C)(C)C | 144 to 146
CCOC(=O)c1sc(Oc2ccc(Cl)cc2Cl)nc1C | 71 to 73
C=C(COC)c1ccc(NC(=O)N(C)C)cc1 | 96 to 97
CCCCc1ccc(COC(=O)NC2CN3CCC2CC3)cc1 (stereo not drawn) | 174 to 175
O=C(Nc1ccccc1)C(CS)Cc1ccccc1 (stereo not drawn) | 70
Cc1cc(C#N)ccc1N1CCN(C(=O)OC(C)(C)C)CC1 | 127 to 131
Nc1cc(OCCCl)ccc1F | 42 to 43
c1cc(-c2c(-c3ccsc3)nc3ccc(N4CC5CNCC5C4)nn23)ccn1 (stereo not drawn) | 196 to 198
Cc1c(C(=O)Nc2ccc(N3CCC(N4CCNCC4)CC3)c(C#N)c2)cnn1-c1ccc(Cl)cc1 | 226
CC(c1ccccc1)N1Cc2cncn2C(c2cccc(Br)c2)C1=O (single isomer, unassigned; (+)) | 45 to 50
O=c1[nH]c(=O)n(Cc2cccc(OCc3noc(-c4ccc(F)cc4)n3)c2)o1 | 147 to 148
Nc1nnc(Cc2cccc(C(F)(F)F)c2)s1 | 174 to 176
Cc1nnc2n1-c1sc(Cc3ccccc3)cc1C(c1ccccc1Cl)=NC2 | 161 to 163
CN1CC=C(c2c[nH]c3ccc(NC(=O)c4ccccc4)cc23)CC1 | > 250
COC(=O)c1cc2c(nc1C(=O)OC)N(C)CC2 | 132 to 133
C=CCOc1ccc(C#N)c(OC(C(=O)OC)c2ccccc2C)c1 (racemic) | 98 to 99
COC(=O)c1ccc(CCCNCC(O)c2cccc(Cl)c2)cc1 (stereo not drawn) | 89 to 92
c1csc(-c2ccc(C34CCN(CC3)C4)cn2)n1 | 127 to 129

Structure (SMILES) | melting point [°C]
Brc1csc2ncnc(NCc3ccccn3)c12 | 127 to 129
O=C(NC[C@H]1CN(c2ccc(C3C=CS(=O)(=O)CC3)cc2)C(=O)O1)C(Cl)Cl (stereo partly drawn) | 159 to 161
Cc1cc(-c2cc(C(F)(F)F)n3ncc(C(=O)Nc4cccc(S(=O)(=O)N5CCN(C)CC5)c4)c3n2)ccc1Cl | 143
FC(F)(F)c1cnc(CNC(=S)Nc2ccccc2Cl)c(Cl)c1 | 126
COc1ccc(Nc2nccc(-c3ccc(N4CCNCC4)nc3)n2)cn1 | 160 to 165
CCCc1c2oc(C(N)=O)cc(=O)c2cc2c(=O)cc(C(=O)OCC)oc12 | 229 to 231
Cc1c(C=CCCCCCCCCCC(=O)O)cccc1C(=O)c1ccc(Cl)cc1 | 49
CC(=O)N[C@@H](CSC(=O)C(C)C)C(=O)NCCSC(=O)C(C)C | 99 to 100
CCCCNS(=O)(=O)c1ccc(N2CCC(NC[C@H](O)COc3cccc4[nH]c(=O)[nH]c34)CC2)cc1 | 69 to 75
Cc1cc2cccc([C@H](O)CO)c2nc1-c1ccccc1 | 117
Cc1c(-c2ccc(NC(=O)OC(C)(C)C)cc2)nc2n1CCc1ccccc1C2OC1CCN(C)CC1 (stereo not drawn) | 194
CCCCC(=O)c1c(-c2ccc3cc(OCC(=O)O)ccc3c2)oc2ccccc12 | 130 to 132
OC(COc1ccc(F)cc1)CN1CCC(=C2c3ccc(F)cc3CCn3ncnc32)CC1 (stereo not drawn) | 134
C#Cc1ncn2c1[C@@H]1CCCN1C(=O)c1c(Cl)cccc1-2 | 324 to 325
CCOC(=O)CNc1c(C)cc(C(O)(C(F)(F)F)C(F)(F)F)cc1C | 91 to 93
C=CCCn1c2ccc(OC)cc2c2c3c(c(-c4ccccc4Cl)cc21)C(=O)N(Cc1ccc(OC)cc1OC)C3=O | 161 to 164
COC(=O)Cc1ccc(C(=O)c2ccc(C)cc2)n1C | 117 to 118
CC(=O)c1ccc(Oc2ccc(F)cc2)cc1 | 65 to 67
CSc1cnc2c(c1)CCC(c1ccc(Cl)c(Cl)c1)O2 (stereo not drawn) | 109 to 111
O=C(O)CCCCCn1sc2ccccc2c1=O | 59 to 61

Continued, values first:

melting point [°C] | Structure (SMILES)
76.5 to 77.5 | CC(C)c1cccc(C(C)C)c1NC(=O)CSCCCCCCCCCCCCN1CCN(c2ccccc2)CC1
200 to 201 | CC(C)=NNC1=NCc2c[nH]c3cccc1c23
89 to 90.5 | CCOC(=O)c1cc2c(OCc3ccccc3)cccc2n1C
186 to 188 | Cc1cc(SC(C)C)c(NC(=O)CN2CCN(CCSc3nc4ccccc4[nH]3)CC2)c(SC(C)C)n1
158 | CCCCc1nc(SC)c(Br)n1Cc1ccc(-c2ccccc2S(=O)(=O)N=CN(C)C)cc1
182 to 184 | CC(C)(C)Sc1c(CC(C)(C)C(=O)O)n(Cc2ccc(Cl)cc2)c2ccc(OCc3ccc(Cl)s3)cc12
103 to 104 | CC(C)(C)c1cc(C(=O)c2ccco2)cc2c1OCC2(C)C
45 to 46 | COC(=O)Cc1ccc([N+](=O)[O-])cc1
217 to 220 | O=C(Nc1ccc2cc(CN3CCCC3)cnc2c1)c1ccc(-c2ccc(Cl)cc2)cc1
39 to 41 | CCC1=C(O)C(=O)CC1
145 to 147 | CCOC(=O)Cc1c(C(=O)OCC)c(O)c(C(=O)c2ccc(Cl)cc2)n1C
> 300 | O=C1c2ccccc2-c2[nH]nc(-c3ccncc3)c21
110 to 112 | COc1ccc2cc([C@H](C)C(=O)ON3C(=O)c4ccccc4C3=O)ccc2c1
201 to 204 | CN(C)Cc1ccc(CSCCNc2ncc([N+](=O)[O-])c(=O)[nH]2)o1
185 to 188 | COC(=O)c1ccc(OCCCNc2ccc(NCc3ccc4c(c3)OCCO4)cc2)cc1
212 | CCOC(=O)c1cnc2c3ccc(OC)cc3ccn2c1=O
84 to 88 | CC(C)C(C(=O)O)c1ccc(OCCNC(=O)C2Cc3ccccc3N2S(=O)(=O)c2ccc(-c3cc(C(F)(F)F)ccc3Cl)cc2)cc1 (stereo not drawn)
93 to 95 | CCOC(=O)c1cnc2ccnn2c1Cl
272 | Cn1ncc(C(=O)N2CCC2)c1C(=O)Nc1ccc2nc(-c3cccnc3)nn2c1
138 to 140 | CC1c2cc(F)ccc2-c2ccc(F)cc2N1C(=O)c1ccc(O)cc1 (stereo not drawn)

melting point [°C] | Structure (SMILES)
155 to 157 | Cc1nc(-c2ccccc2)cc(-c2cccc([N+](=O)[O-])c2)c1CBr
182 to 184 | CCCOc1ccccc1C1N=C2N=NC=C2C(=O)N1 (stereo not drawn)
131 | COC(=O)NC(=Nc1cc(OS(=O)(=O)c2cccc(C(F)(F)F)c2)ccc1NC(N)=O)NC(=O)OC
210 to 211 | O=C(O)Cc1c(-c2ccccc2)n[nH]c1-c1ccccc1
196 | Cc1c(O)cc2c(c1Br)[C@H](O)[C@H](N1CCC(O)(c3ccc(F)cc3)CC1)CO2 (relative stereo)
237 to 242 | O=C(Cc1c(-c2ccccc2)c2cc(CN3CCNCC3)c(Cl)cc2oc1=O)Nc1ccc(Cl)cc1C(F)(F)F
88.5 to 89.5 | N#Cc1ccc(N2CCc3ccccc32)cc1
162 | OC1CSC(Oc2cc(-c3ccccn3)cc(F)c2F)C(O)C1O (stereo not drawn)
110 to 115 | CC(NC(=O)c1ccc(C2(C)C(=O)Nc3cc(Cl)cc(Cl)c3C2=O)cc1)c1ccccc1 (stereo not drawn)
205 to 206 | O=C(Nc1ccccc1Cl)N1CCc2cc(S(=O)(=O)N3CCN(c4cccc(Cl)c4)CC3)ccc21
74 to 77 | CCOC(=O)C1=C(C)NC(C)=C(C(=O)OCCN2CCN(C(c3ccc(C)cc3)c3ccc(C)cc3)CC2)C1c1cccc(C(F)(F)F)c1 (stereo not drawn)
137 to 139 | CSc1nc(=O)n(C2CCCCC2)c(=O)n1C
98 to 100 | O=C(O)C(O)c1cccc(OCc2ccccc2Cl)c1OCc1ccccc1Cl (stereo not drawn)
179 to 182 | CC1(C)Cc2cccc(C(=O)O)c2S1
186 to 191 | O=C(CC[C@H]1CC[C@H](Nc2ncc3ncnc(Nc4ccc(F)c(Cl)c4)c3n2)CC1)N1CCOCC1
174 to 176 | CC(C)OC(=O)N1CC(=O)Nc2ccc(-c3cccc(Cl)c3)cc21
74 to 79 | CC(=O)OCC1(c2ccccc2)CCC(=O)CC1
138 to 142 | O=C(O)[C@H](CCc1ccccc1)NS(=O)(=O)c1ccc2c(c1)Cc1ccccc1O2
143 to 146 | O=C(Nc1cccc(C(F)(F)F)c1)c1cccnc1NCc1cccc(O)c1
86.3 to 86.6 | COc1ccc(-c2cccc(C#N)n2)cc1

melting point [°C] | Structure (SMILES)
202 to 204 | COCOCc1ccccc1C1Cn2cc(C(=O)NCc3ccc(Cl)cc3)c(=O)c3cc(CN4CCOCC4)cc(c32)O1 (stereo not drawn)
136 to 138 | COC1C(OC(=O)c2ccc([N+](=O)[O-])cc2)C=C(C)C(=O)CC1(C)C (stereo not drawn)
294 to 295 | Nc1ccc(C(=O)NCCNC(=O)c2ccc(N)cc2)cc1
> 250 | O=c1ccc(S(=O)(=O)c2cc3ccc(F)cc3[nH]2)n[nH]1
164 | CC(C)(Oc1ccc(OCc2nc(-c3ccc(C(F)(F)F)cc3)no2)cc1)C(=O)O
126 to 127 | CC(C)CC(NC(=O)OCc1ccccc1)C(=O)NC(C#N)COCc1ccccc1 (stereo not drawn)
112 to 113 | Cc1ccc(C[C@H]2NC(=O)O[C@H]2c2ccc(F)cc2)cc1OC(F)(F)C(F)F (racemic)
195 to 196 | CCOC(=O)c1cnn(-c2ccc(OC)c(C#N)c2)c1N
290 to 291 | CC(=O)N1CC(C)(C)c2cc3nc(C(F)(F)F)[nH]c3cc21
48 to 49 | Cc1cc(C)c2c(c1C)OCC2c1ccc(C(C)C)cc1 (stereo not drawn)
172 to 174 | Cc1c(C(=O)Nc2ccc(OCCCN3CCOCC3)c(C#N)c2)cnn1-c1ccc(C(F)(F)F)cc1
90 | COC1OC(=O)C(OC)(OC)C1Cl (stereo not drawn)
171 | O=C(Oc1cc2c(c3ccccc13)Nc1ccccc1S2)c1ccccc1
221 | Oc1ccc(-c2nnsc2-c2ccc(O)cc2)cc1
143 to 147 | O=c1c(-c2ccccc2F)c(CNc2ncnc3[nH]cnc23)oc2ccccc12
99 to 101 | CC(=O)Oc1ccc(Cn2ccnc2SC(C)=O)cc1
263 to 266 | COc1ccc2c(c1)NC(=O)C2=Cc1[nH]c2c(c1CCC(=O)O)CCCC2
> 250 | Nc1nc2ccc3cc(Br)c([N+](=O)[O-])cc3c2c(=O)[nH]1
